Patent US20250000836A1, “PARTICLE DELIVERY OF THYROID HORMONE RECEPTOR AGONISTS AND ANTAGONISTS” (CYTA THERAPEUTICS, INC., priority 2021, published 2025)
Marks after values point to notes of the source that are not given here.

How the values were obtained:
[1] = test system: HFD-induced NASH (mild NASH model), male C57BL/6J mice; experiment: Serum biochemical analysis, mild NASH model (12 week HFD prior to dosing); format: in vivo; conditions: for ALT / AST / Cholesterol / HDL Cholesterol / LDL Cholesterol / Triglycerides: serum, 12 week HFD prior to dosing, 5 weeks, mean ± SE
Procedure: (§1) All animal care and experimental procedures were approved by the Ethical Committee on Animal Care and Experimentation. Male C57BL/6J mice were purchased at 6 weeks of age from the Jackson Laboratory and housed in a controlled environment (12 h light/dark cycle, 21±2° C., humidity 50±10%). Mice were permitted ad libitum access to water and either 10 kcal % fat control diet (CD, Cat #D09100304, Research Diets) or 40 kcal % fat, 20 kcal % fructose and 2% cholesterol high fat diet (HFD, Cat #D09100310, Research Diets).
To test the preventative effect of CGS-ANG in treating HFD-induced NASH, mice were fed high fat diet (HFD) or low fat diet (CD) for 12 weeks (mild NASH model) and then randomly assigned to 9 groups with 8-10 mice per group before treatment: (1), CD: mice fed the CD diet and treated with vehicle; (2), HFD: mice fed the HFD diet and treated with vehicle; (3), CGS-D1: mice fed the HFD diet and treated with 10 μg/kg of CGS26214 (suspended in saline with 1% DMSO); (4), CGS-D2: mice fed the HFD diet and treated with 20 μg/kg of CGS26214; (5) CGS-D3: mice fed the HFD diet and treated with 60 μg/kg of CGS26214; (6) CNG-D1: mice fed the HFD diet and treated with CGS-ANG loaded with CGS26214 at a dose of 10 μg/kg; (7) CNG-D2: mice fed the HFD diet and treated with CGS-ANG loaded with CGS26214 at a dose of 20 μg/kg; (8) CNG-D3: mice fed the HFD diet and treated with CGS-ANG loaded with CGS 26214 at a dose of 60 μg/kg; (9) BNG: mice fed the HFD diet and treated with BNG with the same dose of nanogels with group (8). All the treatments were injected intraperitoneally at the doses indicated once per day before the dark cycle of the day for 5 weeks.
(§2) After each designated treatment period, all the mice were sacrificed unfasted by cardiac puncture after gradual-fill CO2 asphyxiation. Terminal blood samples were collected in SST-SERUM separator tubes for serum collection. Epididymal fat pads (EFP), liver and hearts were removed and weighed. Data (weight gain, liver weight, heart weight, epididymal fat pad weight) from the 12 week and 24 week study are shown in FIGS. 3A-3D and 4A-4D, respectively. Portions of livers and hearts were collected and stored at −80° C. or fixed in 4% paraformaldehyde solution (Sigma-Aldrich, St. Louis, MO) for further analysis. Visual images of mice from each treatment groups at 24 weeks is shown in FIG. 5 while images of mice liver from each treatment group at 24 weeks is shown in FIG. 6.
(§3) Analysis of serum cholesterol (TC), high-density lipoprotein cholesterol (HDL-C), low-density lipoprotein cholesterol (LDL-C), triglycerides (TG), serum alanine aminotransferase (ALT) and aspartate aminotransferase (AST) was performed at Indexx BioAnalytics (North Grafton, MA) Plasma glucose, insulin, amyloid A (SAA), E-selectin and monocyte chemoattractant protein-1 (MCP-1) were quantified using commercial kits. Data from the 12 week and 24 week study are shown in Table 2 and Table 3, respectively.

[2] = test system: HFD-induced NASH (fully developed NASH model), male C57BL/6J mice; experiment: Serum biochemical analysis, fully developed NASH model (24 week HFD prior to dosing); format: in vivo; conditions: 5 weeks, mean ± SE
Procedure: as §1
(§4) To test the therapeutic effect of CGS-ANG in treating HFD-induced NASH, mice were fed HFD or LFD for 24 weeks (fully developed NASH model) and then randomly assigned to 9 groups with 8-10 mice per group before the medical treatments: (1), CD: mice fed the CD diet and treated with vehicle; (2), HFD: mice fed the HFD diet and treated with vehicle; (3), CGS-D1: mice fed the HFD diet and treated with 5 μg/kg of CGS26214; (4), CGS-D2: mice fed the HFD diet and treated with 10 μg/kg of CGS26214; (5) CGS-D3: mice fed the HFD diet and treated with 20 μg/kg of CGS 26214; (6) CNG-D1: mice fed the HFD diet and treated with CGS-ANG loaded with CGS26214 at a dose of 5 μg/kg; (7) CNG-D2: mice fed the HFD diet and treated with CGS-ANG loaded with CGS 26214 at a dose of 10 μg/kg; (8) CNG-D3: mice fed the HFD diet and treated with CGS-ANG loaded with CGS 26214 at a dose of 20 μg/kg; (9) BNG: mice fed the HFD diet and treated with BNG with the same dose of nanogels as group (8). All the treatments were injected intraperitoneally at the doses indicated once per day before the dark cycle of the day for 5 weeks.
as §2, §3

[3] = Body weight and liver weight in the 12 week and 24 week HFD NASH models; format: in vivo, mice; conditions: the two models (12 week and 24 week HFD), i.p. once per day, 5 weeks
Procedure: as §1, with “Diets). […]” for “Diets).”
Body weight and food intake per cage were measured regularly during the study. […]

[4] = test system: HFD-induced NASH, mouse liver; experiment: Liver histology (H&E, Masson's trichrome), 24 week study; format: in vivo, mice; conditions: groups CGS-2 / CNG-2 (10 μg/kg CGS26214 i.p. once per day, 5 weeks)
Procedure: as §4, with “weeks. […]” for “weeks.”

[5] = test system: Diet Induced Obese (DIO) mice; experiment: In vivo serum T4 and TSH analysis in Diet Induced Obese mice; conditions: 5, 10 or 20 μg/kg, 12-week and 24-week timepoints, compared to lean control and high fat control
Procedure: A Diet Induced Obese (DIO) mouse model was used to study the in vivo effects of the CGS26214-encapsulated nanogels with anionic group-modified backbone (CGS-ANG), referred to as “CYTA-001,” on serum T4 and TSH within the context of obesity.
The DIO mice were treated with either the non-liver targeted TRβ agonist, Axitirome (CGS26214), also referred to as “drug” in FIGS. 10A and B, or CYTA-001 at 5 μg/kg, 10 μg/kg, or 20 μg/kg for 12 weeks or 24 weeks. Treated DIO mice serum T4/TSH levels were compared to a lean control (LC control), or low fat diet, and to a high fat control (HF control). After each designated treatment period, all the mice were sacrificed unfasted by cardiac puncture after gradual-fill CO2 asphyxiation. Terminal blood samples were collected in SST-SERUM separator tubes for serum collection.
Serum was analyzed for thyroid hormone T4 and thyroid stimulating hormone (TSH) levels. […] This is an unexpected result as thyromimetics have not been observed for weight loss without some level of peripheral activation of the TRα or TRβ receptor. Peripheral activation of the TRα receptor is generally toxic and ideally avoided.

[6] = test system: Diet Induced Obese (DIO) mice; experiment: In vivo insulin resistance analysis (HOMA-IR) in DIO mice; conditions: 24 weeks HFD then 5-week dosing at 5, 10 or 20 μg/kg
Procedure: DIO mice were used to study the in vivo effects of CYTA-001 on insulin resistance within the context of obesity and diet. Homeostatic model assessment for insulin resistance (HOMA-IR) levels were measured in DIO mice that were conditioned on high fat diets (HFD) for 24 weeks prior to a 5-week dosing regimen. The HFD DIO mice were treated with either the non-liver targeted TRβ agonist, Axitirome (CGS26214), also referred to as “drug” in FIG. 11, or CYTA-001 at 5 μg/kg, 10 μg/kg, or 20 μg/kg dosages for 5 weeks.

[7] = 10 μg/kg CGS26214 i.p. once per day
[8] = 20 μg/kg CGS26214 i.p. once per day
[9] = 60 μg/kg CGS26214 i.p. once per day
[10] = 5 μg/kg CGS26214 i.p. once per day

Work on `CCOC(=O)C(=O)Nc1cc(C)c(Oc2ccc(O)c(C(O)c3ccc(F)cc3)c2)c(C)c1` (racemic) [CGS26214, ethyl (+−)-((4-(3-((4-fluorophenyl)hydroxymethyl)-4-hydroxyphenoxy)-3,5-dimethylphenyl)amino)oxoacetate] yielded an ALT [1, 7] of 196 ± 26, an AST [1, 7] of 205 ± 27 and a Cholesterol [1, 7] of 158.2 ± 19.2 mg/dL. The “HDL Cholesterol” value [1, 7] was 87.2 ± 9.6 mg/dL, the “LDL Cholesterol” value [1, 7] was <7 mg/dL and the Triglycerides [1, 7] was 87.6 ± 3.5 mg/dL. It also gave an ALT [1, 8] of 217 ± 28, an AST [1, 8] of 252 ± 47 and a Cholesterol [1, 8] of 155.8 ± 11.8 mg/dL. The “HDL Cholesterol” value [1, 8] was 76.8 ± 5.8 mg/dL, the “LDL Cholesterol” value [1, 8] was <7 mg/dL and the Triglycerides [1, 8] was 83.5 ± 10 mg/dL. For the same molecule, the ALT [1, 9] was 279 ± 68, the AST [1, 9] was 303 ± 49 and the Cholesterol [1, 9] was 105.5 ± 23.7 mg/dL. The “HDL Cholesterol” value [1, 9] was 53.1 ± 10.8 mg/dL, the “LDL Cholesterol” value [1, 9] was <7 mg/dL and the Triglycerides [1, 9] was 78.7 ± 7.2 mg/dL. For the same molecule, the “reversing or preventing changes in biochemical markers induced by the high-fat diet” value ([1]; summary of Tables 2 and 3 (12 week and 24 week models), compared with LC control) was “much less effective”, the ALT [2, 10] was 276 ± 20^d and the AST [2, 10] was 319 ± 15^ceg. For the same molecule, the Cholesterol [2, 10] was 278.9 ± 20.2^cef mg/dL, the “LDL Cholesterol” value [2, 10] was 18.4 ± 2.3 mg/dL and the ALT [2, 7] was 257 ± 20^cd. The Cholesterol [2, 7] was 236.8 ± 16.6^cd mg/dL, the “HDL Cholesterol” value [2, 7] was 113.4 ± 5.5^ab mg/dL and the “LDL Cholesterol” value [2, 7] was 15.3 ± 1.1 mg/dL. For the same molecule, the Triglycerides [2, 7] was 94.7 ± 9.5^cdf mg/dL, the ALT [2, 8] was 225 ± 10^cd and the AST [2, 8] was 247 ± 17^de. The Cholesterol [2, 8] was 196.9 ± 10.2^ade mg/dL, the “HDL Cholesterol” value [2, 8] was 96.3 ± 3.9^ac mg/dL and the “LDL Cholesterol” value [2, 8] was 11.4 ± 1.2 mg/dL. For the same molecule, the Triglycerides [2, 8] was 90.3 ± 5.7^ad mg/dL, the “effects on body weight” value [3] was “only moderate effects” and the “effects on liver weight” value [3] was “only moderate effects”. The “fibrosis and collagen deposition (Masson's trichrome staining)” value [4] was “show signs of fibrosis and collagenous tissue fiber formation”, the “steatosis, inflammation and ballooning degeneration (hematoxylin-eosin staining)” value [4] was “show macrovesicular and microvesicular steatosis, inflammation, and ballooning degeneration” and the “change in serum TSH” value [5] was “statistically significant change”. For the same molecule, the “insulin resistance (HOMA-IR)” value [6] was “not observed to produce a significant effect”.
